{"source": "patent US20020072512A1", "about": "“Method of preventing and treating HIV-mediated central nervous system damage” (priority 2000, published 2002)", "key": {"[1]": {"system": "astroglial cells exposed to supernatant of HIV-infected macrophages", "assay": "Ultrastructural studies (electron microscopy) of astroglial cells", "format": "cell-based, human", "settings": "co-incubation, AZT 50 μM; for pro-apoptotic effect of supernatant of HIV-infected M/M on astroglial cell ultrastructure: M40401 10-100 μM, L-NAME 100 μM", "method": "(§1) The astrocytic cell line Lipari was derived from a patient who presented a large right front-temporal mass (astrocytoma), and grown as previously described (Mollace, V., Colasanti, M., Rodinò, P., Lauro, G. M. & Nisticò, G. (1994b). Biochem. Biophys. Res. Commun. 203, 87-92.). Cells were expanded and cultured by seeding them in 25cm plastic flasks at a density of 0.7×10^6 cells/flask in complete medium, and incubated at 37° C. in humidified air containing 5% CO2.\n(§2) A monocytotropic strain of HIV-1, named HIV-1Ba-L was used in all experiments. M/M cultures were exposed to HIV and virus expansion was performed. After 2 hours, virus was removed by washing cultures with warm medium and then cultures of M/M infected by HIV were carried out for further 13-15 days.\n(§3) The supernatant of HIV-infected M/M was collected 13 days after virus infection and then incubated for 3 hours with cultured astrocytes. The supernatant of Mock-infected M/M was used as control treatment. […] HIV-p24 antigen production in supernatants of M/M was assesed using a commercially available ELISA Kit (HIV-p24 gag Abbott Lab, Pomezia, Italy).\nCells for electron microscopy were fixed in 2.5% glutaraldehyde in PBS pH7.4 at 4° C. and then washed for 2 hours in PBS and post fixed in osmium tetroxide 1,33% for 2 hours at 4° C. After several washes in PBS, the cells were dehydrated in graded alcohol, transferred into toluene, and embedded in Epon 812 resin. The resin was allowed to polymerize in a dry oven at 60° C. for 24 hours. Thin sections were cut with a glass knife Reichert microtome, stained with Touloidine Blue and examined on Axioscope microscope. Ultra-thin sections were cut on a Reichert microtome using a diamond knife, stained with uranyl-acetate-lead-hydroxide and evaluated and photographed on a Philips electron microscope CM 10 (Philips)."}, "[2]": {"system": "astroglial cells incubated with supernatants of HIV-infected macrophages", "assay": "Malondialdehyde (MDA) in astroglial cells incubated with supernatants of HIV-infected macrophages", "format": "cell-based, human", "settings": "M40401 100 μM, L-NAME 100 μM, AZT 50 μM, MDA in nmol g-1", "method": "as §1, §2, §3"}, "[3]": {"assay": "Reaction with hydrogen peroxide (spectrophotometric or cyclic voltammetric monitoring)", "format": "biochemical", "settings": "spectrophotometric or electrochemical (cyclic voltammetric) techniques"}, "[4]": {"assay": "Catalytic catalase activity assay using oxygen electrodes", "format": "biochemical", "settings": "total oxygen evolved"}, "[5]": {"settings": "same conditions (pH=7.4 and 21° C.); cited from earlier work"}, "[6]": {"system": "Lipari astroglial cell line incubated with supernatant of HIV-1 infected macrophages", "assay": "FACS analysis of apoptotic cell death of astrocytes exposed to supernatant of HIV-infected macrophages", "format": "cell-based, human", "settings": "M40401 10-100 μM, L-NAME 100 μM, AZT 50 μM", "method": "as §1, §2\nThe supernatant of HIV-infected M/M was collected 13 days after virus infection and then incubated for 3 hours with cultured astrocytes. The supernatant of Mock-infected M/M was used as control treatment. […]\nThe astrocytic cells either treated or untreated with supernatants of HIV-infected macrophages were gently detached from plastic 8 days after exposure. […] Propidium iodide-stained cells were analysed with a FACScan Flow Cytometer; fluorescence was measured between 565 and 605nm. The data were acquired and analysed by the Lysis II program."}}, "data": [{"smiles": "Cc1cn([C@H]2C[C@H](N=[N+]=[N-])[C@@H](CO)O2)c(=O)[nH]c1=O", "note": "[AZT]", "values": [{"measurement": "pro-apoptotic effect of HIV-infected macrophages on astroglial cell ultrastructure", "setting": "[1]; FIG. 5, M40401 100 μM", "value": "failed to inhibit"}, {"measurement": "pro-apoptotic effect of supernatant of HIV-infected M/M on astroglial cell ultrastructure", "setting": "[1]", "value": "failed to inhibit"}, {"measurement": "MDA overproduction (lipid peroxydation)", "setting": "[2]", "value": "failed to antagonize"}]}, {"smiles": "[Cl-].[Cl-].[Mn+2].c1cc2nc(c1)CN[C@@H]1CCCC[C@H]1NCCN[C@@H]1CCCC[C@H]1NC2", "note": "[M40403]", "values": [{"measurement": "stoichiometric reaction with H2O2", "setting": "[3]", "value": "no stoichiometric reaction is observed"}, {"measurement": "catalytic catalase activity with H2O2", "setting": "[4]", "value": "no catalytic activity is observed"}, {"measurement": "reaction with hydrogen peroxide", "setting": "[5]", "value": "do not react"}]}, {"smiles": "COC(=O)[C@@H](N)CCCNC(=N)N[N+](=O)[O-]", "note": "[L-NAME]", "values": [{"measurement": "pro-apoptotic effect of supernatant of HIV-infected M/M on astroglial cell ultrastructure", "setting": "[1]", "value": "failed to inhibit"}, {"measurement": "MDA overproduction (lipid peroxydation)", "setting": "[2]", "value": "failed to antagonize"}, {"measurement": "apoptotic cell death of astroglial cells as evaluated by FACS analysis", "setting": "[6]", "value": "failed to modify"}]}]}
